What was measured:
Settings in all cases: 72 h
Caco-2 [1] = assay: cell viability relative to DMSO; higher = less toxic
Calu-3 [2] = assay: as above
HepG2 [3] = assay: as above
U2OS [4] = assay: as above
Vero E6 [5] = assay: as above
Calu-3 [6] = assay: relative viability EC50 (midpoint between 100% and the lowest measured viability); higher = less toxic
U2OS [7] = assay: as above
Vero E6 [8] = assay: as above
Caco-2 [9] = assay: drug sensitivity score (DSS) for viability; higher = more toxic; extreme values may be limits of the assay
Calu-3 [10] = assay: as above
HepG2 [11] = assay: as above
U2OS [12] = assay: as above
Vero E6 [13] = assay: as above
Caco-2 [14] = assay: relative viability EC50 (midpoint between 100% and the lowest measured viability); higher = less toxic
HepG2 [15] = assay: as above

Row | SMILES | cell viability (Caco-2 [1]; 1 nM) | cell viability (Caco-2 [1]; 10 nM) | cell viability (Caco-2 [1]; 100 nM) | cell viability (Caco-2 [1]; 1000 nM) | cell viability (Caco-2 [1]; 10000 nM) | cell viability (Calu-3 [2]; 1 nM) | cell viability (Calu-3 [2]; 10 nM) | cell viability (Calu-3 [2]; 100 nM) | cell viability (Calu-3 [2]; 1000 nM) | cell viability (Calu-3 [2]; 10000 nM) | cell viability (HepG2 [3]; 1 nM) | cell viability (HepG2 [3]; 10 nM) | cell viability (HepG2 [3]; 100 nM) | cell viability (HepG2 [3]; 1000 nM) | cell viability (HepG2 [3]; 10000 nM) | cell viability (U2OS [4]; 1 nM) | cell viability (U2OS [4]; 10 nM) | cell viability (U2OS [4]; 100 nM) | cell viability (U2OS [4]; 1000 nM) | cell viability (U2OS [4]; 10000 nM) | cell viability (Vero E6 [5]; 1 nM) | cell viability (Vero E6 [5]; 10 nM) | cell viability (Vero E6 [5]; 100 nM) | cell viability (Vero E6 [5]; 1000 nM) | cell viability (Vero E6 [5]; 10000 nM) | relative viability EC50 (Calu-3 [6]) | relative viability EC50 (U2OS [7]) | relative viability EC50 (Vero E6 [8]) | drug sensitivity score (Caco-2 [9]) | drug sensitivity score (Calu-3 [10]) | drug sensitivity score (HepG2 [11]) | drug sensitivity score (U2OS [12]) | drug sensitivity score (Vero E6 [13]) | relative viability EC50 (Caco-2 [14]) | relative viability EC50 (HepG2 [15])
1 | CCN1CCN(C(=O)Cc2ccc(Nc3ncc(F)c(Nc4ccc(C(=O)Nc5ccccc5Cl)cc4)n3)cc2)CC1 [aurora-a-inhibitor-i] | 101% | 93.4% | 95.5% | 98% | 74.9% | 101% | 103% | 109% | 94.8% | 84.5% | 91.2% | 90.7% | 89.6% | 93.9% | 64.8% | 100% | 99.8% | 99.2% | 99.1% | 12% | 97% | 106% | 99.6% | 93.4% | 86.8% | > 10 µM | 3.09 µM | > 10 µM | 1.2 | 0.7 | 2.7 | 5 | 0.4 |  | 
2 | C=C(C)[C@@H]1CC[C@]2(C(=O)O)CC[C@]3(C)[C@H](CC[C@@H]4[C@@]5(C)CC[C@H](O)C(C)(C)[C@@H]5CC[C@]43C)[C@@H]12 [betulinic-acid] | 102% | 108% | 92.3% | 112% | 102% | 93.1% | 97.9% | 93% | 106% | 100% | 109% | 97.4% | 114% | 101% | 113% | 101% | 101% | 98% | 99% | 95% |  |  |  |  |  | > 10 µM | > 10 µM |  | 0 | 0 | 0 | 0 |  | > 10 µM | > 10 µM
3 | COc1cc(N2CCC(N3CCN(C)CC3)CC2)ccc1Nc1ncc(Cl)c(Nc2ccccc2P(C)(C)=O)n1 [brigatinib] | 94.9% | 97% | 92.8% | 94% | 73% | 105% | 102% | 106% | 89.5% | 35.3% | 98.1% | 92.8% | 105% | 81.7% | 55% | 97.2% | 99.5% | 97.4% | 98.4% | 64.8% | 98.7% | 102% | 101% | 94.5% | 78.5% | 1.92 µM |  | > 10 µM | 1.8 | 5.3 | 4.8 | 1.9 | 1.4 |  | 
4 | O=c1[nH]c(=O)n([C@H]2C[C@H](O)[C@@H](CO)O2)cc1/C=C/Br [brivudine] | 97% | 111% | 104% | 109% | 100% |  |  |  |  |  |  |  |  |  |  | 94.4% | 98.5% | 94.5% | 104% | 98% |  |  |  |  |  |  | > 10 µM |  | 0 |  |  | 0 |  | > 10 µM | 
5 | N#Cc1ccnc(N2C(=O)CC[C@H]2C(=O)N(c2cncc(F)c2)[C@H](C(=O)NC2CC(F)(F)C2)c2ccccc2Cl)c1 [ivosidenib] | 105% | 97.6% | 94.2% | 93% | 104% | 98.8% | 109% | 93.7% | 104% | 97.3% | 97.5% | 97.7% | 95.1% | 106% | 98.7% | 104% | 100% | 104% | 101% | 98.3% |  |  |  |  |  | > 10 µM | > 10 µM |  | 0 | 0 | 0 | 0 |  | > 10 µM | > 10 µM
6 | CCNC(=O)[C@@H]1CCCN1C(=O)[C@H](CCCNC(=N)N)NC(=O)[C@H](CC(C)C)NC(=O)[C@@H](CC(C)C)NC(=O)[C@H](Cc1ccc(O)cc1)NC(=O)[C@H](CO)NC(=O)[C@H](Cc1c[nH]c2ccccc12)NC(=O)[C@H](Cc1c[nH]cn1)NC(=O)[C@@H]1CCC(=O)N1 [leuprolide] | 107% | 114% | 107% | 114% | 72.2% | 99.5% | 99.3% | 95% | 110% | 103% |  |  |  |  |  | 92.6% | 96.9% | 103% | 97% | 102% | 102% | 99.3% | 98.6% | 105% | 105% | > 10 µM | > 10 µM | > 10 µM | 0.7 | 0 |  | 0 | 0 |  | 
7 | C[C@H](Cc1ccc(O)c(O)c1)[C@@H](C)Cc1ccc(O)c(O)c1 [masoprocol] | 88.3% | 83.1% | 72.1% | 78.6% | 55.5% | 95.5% | 108% | 93.4% | 93.6% | 93% | 98.3% | 94% | 94.5% | 101% | 97.1% | 92.1% | 104% | 97.7% | 97.8% | 95.9% | 102% | 91.6% | 88.6% | 91.5% | 81.3% | > 10 µM | > 10 µM | > 10 µM | 9.6 | 0 | 0 | 0 | 1.4 |  | > 10 µM
8 | CCN(CCCCOC(=O)c1ccc(OC)c(OC)c1)C(C)Cc1ccc(OC)cc1 (centres undefined) [mebeverine] | 101% | 96.3% | 97.2% | 90.8% | 83.8% | 95.2% | 98.3% | 101% | 100% | 93.8% | 105% | 112% | 100% | 103% | 91.6% | 102% | 99.4% | 99.1% | 102% | 96.3% |  |  |  |  |  | > 10 µM | > 10 µM |  | 0.6 | 0 | 0 | 0 |  | > 10 µM | > 10 µM
9 | Sc1ncnc2nc[nH]c12 [mercaptopurine] | 110% | 103% | 109% | 77% | 89.6% | 113% | 91% | 94.3% | 90.8% | 106% | 112% | 115% | 107% | 69.7% | 18.8% | 102% | 101% | 93.4% | 71% | 65.1% | 103% | 104% | 99.5% | 103% | 70.6% | > 10 µM |  |  | 3.1 | 0 | 8.7 | 5.6 | 1.1 | > 10 µM | 1.23 µM
10 | COC(=O)CCC(=O)CN [methyl-aminolevulinate] |  |  |  |  |  | 101% | 96.5% | 98% | 100% | 93.4% | 83.8% | 98.4% | 94.5% | 84% | 87.8% | 90.5% | 96% | 96.8% | 97.3% | 104% | 97.1% | 89% | 99.5% | 88.8% | 105% | > 10 µM | > 10 µM | > 10 µM |  | 0 | 0 | 0 | 0 |  | > 10 µM
11 | CCC(CC)[C@H](NC(C)=O)[C@@H]1[C@H](O)[C@@H](C(=O)O)C[C@H]1NC(=N)N [peramivir] | 98.8% | 101% | 104% | 105% | 102% | 93.3% | 98.3% | 98.1% | 107% | 101% | 110% | 98.6% | 102% | 110% | 98.9% | 103% | 110% | 98.9% | 110% | 104% |  |  |  |  |  | > 10 µM | > 10 µM |  | 0 | 0 | 0 | 0 |  | > 10 µM | > 10 µM
12 | NC(=O)CN1CC(c2ccccc2)CC1=O (centres undefined) [phenylpiracetam] | 104% | 103% | 93.1% | 102% | 91.8% | 103% | 97.3% | 99.5% | 98.5% | 91.7% | 112% | 107% | 104% | 94% | 104% | 99.3% | 102% | 98.1% | 102% | 98.1% |  |  |  |  |  | > 10 µM | > 10 µM |  | 0 | 0 | 0 | 0 |  | > 10 µM | > 10 µM
13 | CC(C)(C)NC(=O)[C@@H]1C[C@@H]2CCCC[C@@H]2CN1C[C@@H](O)[C@H](Cc1ccccc1)NC(=O)[C@H](CC(N)=O)NC(=O)c1ccc2ccccc2n1 [saquinavir] | 101% | 87.9% | 95.7% | 90.4% | 72.4% | 96.8% | 104% | 93.2% | 102% | 109% | 91.8% | 90.1% | 100% | 82.2% | 84.3% | 101% | 101% | 100% | 103% | 89.8% | 103% | 101% | 104% | 85.1% | 101% | > 10 µM | > 10 µM | > 10 µM | 1.9 | 0 | 1 | 0 | 0 |  | > 10 µM
14 | O=S(=O)(O)Oc1ccc(C(c2ccc(OS(=O)(=O)O)cc2)c2ccccn2)cc1 [sodium-picosulfate] | 88.4% | 102% | 96.3% | 102% | 106% | 87.6% | 95% | 82.2% | 100% | 93.8% |  |  |  |  |  | 102% | 106% | 97.1% | 104% | 99.1% |  |  |  |  |  | > 10 µM | > 10 µM |  | 0 | 0 |  | 0 |  | > 10 µM | 
15 | CSCC[C@H](NC(=O)[C@H](CC(C)C)NC(=O)CNC(=O)[C@H](Cc1ccccc1)NC(=O)[C@H](Cc1ccccc1)NC(=O)[C@H](CCC(N)=O)NC(=O)[C@H](CCC(N)=O)NC(=O)[C@@H]1CCCN1C(=O)[C@H](CCCCN)NC(=O)[C@@H]1CCCN1C(=O)[C@@H](N)CCCN=C(N)N)C(N)=O [substance-P] |  |  |  |  |  | 103% | 98.4% | 102% | 96.5% | 95.6% | 88.1% | 96.3% | 100% | 107% | 105% | 99.5% | 97.2% | 96.2% | 96.7% | 98.2% | 102% | 97.5% | 103% | 102% | 99% | > 10 µM | > 10 µM | > 10 µM |  | 0 | 0 | 0 | 0 |  | > 10 µM
